In PMC12930396, “Positive modulators of N-methyl-D-aspartate receptor: structure–activity relationship study on steroidal C-17 and C-20 oxime ethers” (RSC Advances, 2026):
“Also recorded” adds a separate entry of the source.

What was measured:
GluN1/GluN2B receptors [1] = conditions: cited from earlier work; for EC50: read-out: EC50, potentiation of GluN1/GluN2B receptor responses
GluN1/GluN2B receptors [2] = molecular target: T1, GluN1/GluN2B receptors (Rattus norvegicus, UniProt P35439+Q00960); test: Patch-clamp: modulation of glutamate-induced currents of recombinant GluN1/GluN2B receptors expressed in HEK293 cells; assay type: cell-based; conditions: for h ± SEM (apparent Hill coefficient): concentration-response fit; for h ± SEM (apparent Hill coefficient) / EC50 / Emax: mean ± SEM; for EC50: half-maximal potentiation of currents evoked by 1 µM glutamate; for EC50 / Emax / inhibition at 3 µM: HEK293; for Emax: maximal potentiation of currents evoked by 1 µM glutamate and 30 µM glycine; for Modulatory profile at NMDARs: GluN1/GluN2B in HEK293; for inhibition at 3 µM: at 3 µM compound, read-out: NAM effect (degree of inhibition); for inhibition at 3 µM / PAM effect (degree of potentiation): 1 µM glutamate
T1 construct: expressed in transfected cells; host or cells: HEK293 cells (ATCC No. CRL-1573)
Experimental: To investigate the effect of compounds 11–23 on the activity of NMDARs, electrophysiological measurements were performed on HEK293 cells that were co-transfected with cDNAs containing genes encoding for the rat GluN1-1a and GluN2B subunits. The degree of modulation (E; potentiation/inhibition) for the newly synthesized compounds was determined using the following formula: [drawing 1] where Ie is the value of the current amplitude during glutamate and compound coapplication, and Ia is the current amplitude value for glutamate application. […] The results are presented as mean ± standard error of the mean (SEM), with n equal to the number of independent measurements. One-way analysis of variance (ANOVA) was used for multiple comparisons (unless otherwise stated, a value of P ≤ 0.05 was used for the determination of significance).
We have evaluated the relationship between oxime derivatives 11–23 and their modulatory effect on recombinant GluN1/GluN2B receptors. Due to the […] effect of neurosteroid-based PAMs at NMDARs[20,44]
HEK293 cells (American Type Culture Collection, ATCC No. CRL-1573, Rockville, MD, USA) were cultured in Opti-MEM I (Invitrogen, Carlsbad, CA, USA) supplemented with 5% fetal bovine serum (FBS; PAN Biotech, Aidenbach, Germany) at 37 °C in 5% CO2. 24 h before transfection, HEK293 cells were plated in 24-well plates at a density of 2 × 10^5 cells per well. The next day, the cells were transfected with cDNA encoding rat GluN1-1a (GluN1; GenBank accession number U08261)[56] and GluN2B (GenBank accession number M91562)[57] subunits (in the pCI-neo expression vector), along with green fluorescent protein (GFP; in the pQBI 25 vector, Takara, Tokyo, Japan). Briefly, equal amounts (200 ng) of cDNAs encoding GluN1-1a, GluN2B, and GFP were mixed with 0.6 µl of Matra-A reagent (IBA, Gottingen, Germany) in 50 µL of Opti-MEM I and added to confluent HEK293 cells cultured in 24-well plates. After trypsinization, the cells were resuspended in Opti-MEM I containing 1% FBS, supplemented with 20 mM MgCl2, 1 mM D,L-2-amino-5-phosphonovaleric acid, 3 mM kynurenic acid, and 1 µM ketamine, and plated on 30 mm glass coverslips coated with collagen and poly-L-lysine. Transfected cells were identified by GFP epifluorescence. Electrophysiology experiments were performed 24–48 h after transfection.
Whole-cell current recordings, voltage-clamped at a holding potential of −60 mV, were performed at room temperature using a patch-clamp amplifier (Axopatch 200B; Molecular Devices, Sunnyvale, CA, USA) after capacitance and series resistance (<10 MΩ) compensation (80–90%). NMDAR current responses were low-pass filtered at 2 kHz, digitally sampled at 5 kHz, and analysed using pClamp software (version 10.6; Molecular Devices). Patch pipettes (3–5 MΩ), pulled from borosilicate glass, were filled with an intracellular solution (ICS) containing (in mM): 15 CsCl, 10 BAPTA, 3 MgCl2, 1 CaCl2, 120 gluconic acid, 10 HEPES, and 2 ATP-Mg salt (pH adjusted to 7.2 with CsOH). The extracellular solution (ECS) contained (in mM): 160 NaCl, 2.5 KCl, 0.2 EDTA, 10 glucose, 10 HEPES, and 0.7 CaCl2 (pH adjusted to 7.3 with NaOH). NMDAR responses were induced by 1 µM glutamate and 30 µM glycine. 1% DMSO was present in all control and testing solutions. Solution applications were performed using a microprocessor-controlled multibarrel fast-perfusion system with a solution exchange rate around the cells of ∼10 ms.[58]

in vitro [3] = conditions: pH 7.4; for Metabolic stability in rat liver microsomes: 1 h, 10 µM; for half-life at 10 µM: rat, microsomes
Experimental: The reactions were terminated by the addition of four volumes of ice-cold methanol, mixed vigorously, and left at −20 °C for 1h. After that, the samples were centrifuged and the supernatants were analysed by means of ECHO-MS® System (Sciex, Framingham, MA, USA). Zero time points were prepared by adding ice-cold methanol to the mixture of the compound with cofactors before the addition of microsomes. […] Intrinsic clearance (CLint) was calculated using the following formula: [drawing 4] where V is the incubation volume per milligram of microsomal protein (µL mg^−1) and t1/2 is the microsomal half-life.

in vitro [4] = conditions: pH 7.4; for PAMPA permeability Retention (mass retention): 5 h, 100 µM; for Papp at 5 h, 100 µM: PAMPA
Experimental: Permeability was quantified using permeability coefficients (Pe) and mass retention, the latter representing the proportion of compound retained in the membrane.
Permeation experiments were conducted in polystyrene 96-well filter plates with PVDF membrane pre-coated with structured layers of phospholipids (Corning Gentest™) according to the manufacturer's instructions. Briefly, the plate was warmed to room temperature, and meanwhile, the solutions of the compounds were diluted from 10 mM DMSO stocks to TRIS–HCl buffer pH 7.4 to reach a 100 µM final concentration. The DMSO concentration in the samples was 1%. Then, 300 µL of these solutions were transferred into the donor (receiver) plate wells, and 200 µL of the (TRIS) buffer was added to the acceptor (filter) plate wells. The filter plate and receiver plate were assembled and incubated for 5 h on an orbital shaker (300 rpm). After this, the concentration of the tested substances in both the donor and acceptor compartments was determined with use of LC/MS. Liquid chromatography was performed using an ExionLC AD pump and autosampler from Sciex (Framingham, MA, USA). […] The mobile phase flow rate was 300 µL min^−1. The column Synergi Fusion-RP from Phenomenex (Torrance, CA, USA) was used and was kept at 40 °C during the analysis.

T1 sequence (Q00960 27-1482, other chains not shown): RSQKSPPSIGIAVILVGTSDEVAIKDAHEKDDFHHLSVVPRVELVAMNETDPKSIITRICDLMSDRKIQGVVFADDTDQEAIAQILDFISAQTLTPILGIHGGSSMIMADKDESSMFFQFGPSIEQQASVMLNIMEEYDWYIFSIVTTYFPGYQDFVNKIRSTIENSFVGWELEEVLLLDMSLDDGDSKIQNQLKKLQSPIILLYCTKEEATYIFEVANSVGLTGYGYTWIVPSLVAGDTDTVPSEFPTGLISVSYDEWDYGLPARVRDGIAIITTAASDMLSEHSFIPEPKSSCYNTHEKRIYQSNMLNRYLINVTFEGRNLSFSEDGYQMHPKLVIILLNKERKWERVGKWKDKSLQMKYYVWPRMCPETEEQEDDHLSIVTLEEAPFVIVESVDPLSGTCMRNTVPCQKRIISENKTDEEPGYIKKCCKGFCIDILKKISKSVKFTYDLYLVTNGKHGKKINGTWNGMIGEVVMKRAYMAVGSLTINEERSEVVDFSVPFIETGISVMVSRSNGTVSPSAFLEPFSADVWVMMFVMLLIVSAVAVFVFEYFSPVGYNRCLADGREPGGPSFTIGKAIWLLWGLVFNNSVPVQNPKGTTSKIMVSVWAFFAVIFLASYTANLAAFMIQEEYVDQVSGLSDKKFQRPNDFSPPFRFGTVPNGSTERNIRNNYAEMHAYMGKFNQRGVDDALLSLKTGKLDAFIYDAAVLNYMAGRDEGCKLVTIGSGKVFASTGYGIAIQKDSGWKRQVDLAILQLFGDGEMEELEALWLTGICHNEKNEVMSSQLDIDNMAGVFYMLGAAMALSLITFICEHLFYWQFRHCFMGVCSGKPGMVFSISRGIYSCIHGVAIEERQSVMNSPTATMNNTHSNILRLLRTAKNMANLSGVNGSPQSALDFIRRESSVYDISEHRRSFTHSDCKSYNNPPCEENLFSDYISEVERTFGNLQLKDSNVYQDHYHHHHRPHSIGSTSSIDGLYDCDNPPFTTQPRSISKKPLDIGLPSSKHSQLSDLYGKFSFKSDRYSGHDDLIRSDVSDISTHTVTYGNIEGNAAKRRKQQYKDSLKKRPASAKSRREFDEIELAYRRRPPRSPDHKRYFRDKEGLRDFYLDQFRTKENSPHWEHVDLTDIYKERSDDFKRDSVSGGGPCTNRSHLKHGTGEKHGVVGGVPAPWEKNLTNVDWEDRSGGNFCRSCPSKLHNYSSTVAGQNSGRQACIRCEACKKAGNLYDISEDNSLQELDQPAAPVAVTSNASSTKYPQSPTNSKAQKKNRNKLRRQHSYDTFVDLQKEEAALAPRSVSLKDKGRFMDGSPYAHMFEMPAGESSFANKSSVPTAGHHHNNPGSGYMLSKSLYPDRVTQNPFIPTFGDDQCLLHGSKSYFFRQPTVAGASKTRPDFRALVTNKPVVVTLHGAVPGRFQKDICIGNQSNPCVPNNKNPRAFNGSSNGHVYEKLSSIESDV

SMILES: C[C@]12CC[C@H](OC(=O)CCCCCC(=O)O)CC1=CCC1C2CC[C@]2(C)C(=O)CCC12 (stereo partly shown) [Compound 7]
- Emax, potentiation of GluN1/GluN2B receptor responses (GluN1/GluN2B receptors [1]): 187%
- EC50 (GluN1/GluN2B receptors [1]): 82 µM

SMILES: C[C@@]12CCCC1C1CC[C@@H]3C[C@H](OC(=O)CCC(=O)O)CC[C@]3(C)C1CC2 (stereo partly shown) [Compound 2]
- Emax, potentiation of GluN1/GluN2B receptor responses (GluN1/GluN2B receptors [1]): 452%
- EC50 (GluN1/GluN2B receptors [1]): 7.4 µM

SMILES: C/C(=N\OCc1ccccc1)[C@H]1CCC2C3CC=C4C[C@@H](OC(=O)CCCC(=O)O)CC[C@]4(C)C3CC[C@@]21C (stereo partly drawn) [Compound 21, 20-Oxo-pregn-5-en-3β-yl hemiglutarate O-(phenylmethyl)oxime]
- h ± SEM (apparent Hill coefficient) (GluN1/GluN2B receptors [2]): 1.7 ± 0.3
- EC50 (GluN1/GluN2B receptors [2]): 11.3 ± 2 µM
- Emax (GluN1/GluN2B receptors [2]): 403 ± 56%
- Metabolic stability in rat liver microsomes (in vitro [3]): no detectable metabolism after 60 min
- half-life at 10 µM (in vitro [3]): > 1 h
- PAMPA permeability Retention (mass retention) (in vitro [4]): 95%
- Papp at 5 h, 100 µM (in vitro [4]): 18.2 nm/s

SMILES: C[C@]12CC[C@H](OC(=O)CCCCCCC(=O)O)CC1=CCC1C2CC[C@]2(C)C(=O)CCC12 (stereo partly shown) [Compound 8]
- Emax, potentiation of GluN1/GluN2B receptor responses (GluN1/GluN2B receptors [1]): 189%
- EC50 (GluN1/GluN2B receptors [1]): 49 µM

SMILES: CCCO/N=C(\C)[C@H]1CCC2C3CC=C4C[C@@H](OC(=O)CCCC(=O)O)CC[C@]4(C)C3CC[C@@]21C (stereo partly drawn) [Compound 18, 20-Oxo-pregn-5-en-3β-yl hemiglutarate O-propyloxime]
- Modulatory profile at NMDARs (GluN1/GluN2B receptors [2]): not identified as PAMs; also recorded: complex, concentration-dependent activity profile
- inhibition at 3 µM (GluN1/GluN2B receptors [2]): 7%
- PAM effect (degree of potentiation) (GluN1/GluN2B receptors [2]; at 10 µM compound): 75 ± 21%
- PAM effect (degree of potentiation) (GluN1/GluN2B receptors [2]; at 30 µM compound): 108 ± 17%
- half-life at 10 µM (in vitro [3]): > 1 h
- PAMPA permeability Retention (mass retention) (in vitro [4]): 100%

SMILES: CO/N=C(\C)[C@H]1CCC2C3CC=C4C[C@@H](OC(=O)CCCC(=O)O)CC[C@]4(C)C3CC[C@@]21C (stereo partly drawn) [Compound 17, 20-Oxo-pregn-5-en-3β-yl hemiglutarate O-methyloxime]
- Potency relative to PES (GluN1/GluN2B receptors [2]; EC50 compared with PES): over 3.5 fold
- h ± SEM (apparent Hill coefficient) (GluN1/GluN2B receptors [2]): 1.6 ± 0.1
- EC50 (GluN1/GluN2B receptors [2]): 6.1 ± 0.7 µM
- Emax (GluN1/GluN2B receptors [2]): 503 ± 85%
- half-life at 10 µM (in vitro [3]): > 1 h
- PAMPA permeability Retention (mass retention) (in vitro [4]): 95%
- Papp at 5 h, 100 µM (in vitro [4]): 55 nm/s

SMILES: C/C(=N\OC(C)C)[C@H]1CCC2C3CC=C4C[C@@H](OC(=O)CCCC(=O)O)CC[C@]4(C)C3CC[C@@]21C (stereo partly drawn) [Compound 19, 20-Oxo-pregn-5-en-3β-yl hemiglutarate O-isopropyloxime]
- Modulatory profile at NMDARs (GluN1/GluN2B receptors [2]): not identified as PAMs; also recorded: complex, concentration-dependent activity profile
- inhibition at 3 µM (GluN1/GluN2B receptors [2]): 27%
- PAM effect (degree of potentiation) (GluN1/GluN2B receptors [2]; at 10 µM compound): 81 ± 20%
- PAM effect (degree of potentiation) (GluN1/GluN2B receptors [2]; at 30 µM compound): 169 ± 55%
- Metabolic stability in rat liver microsomes (in vitro [3]): no detectable metabolism after 60 min
- half-life at 10 µM (in vitro [3]): > 1 h
- PAMPA permeability Retention (mass retention) (in vitro [4]): 99%

SMILES: C=CCO/N=C(\C)[C@H]1CCC2C3CC=C4C[C@@H](OC(=O)CCCC(=O)O)CC[C@]4(C)C3CC[C@@]21C (stereo partly drawn) [Compound 20, 20-Oxo-pregn-5-en-3β-yl hemiglutarate O-(2-propenyl)oxime]
- h ± SEM (apparent Hill coefficient) (GluN1/GluN2B receptors [2]): 2.0 ± 0.2
- EC50 (GluN1/GluN2B receptors [2]): 12.6 ± 2.9 µM
- Emax (GluN1/GluN2B receptors [2]): 317 ± 43%
- Metabolic stability in rat liver microsomes (in vitro [3]): no detectable metabolism after 60 min
- half-life at 10 µM (in vitro [3]): > 1 h
- PAMPA permeability Retention (mass retention) (in vitro [4]): 99%
- Papp at 5 h, 100 µM (in vitro [4]): 72.4 nm/s
